Key:
Type in all cases: cell-based, mouse
[1] = tested on: β-galactosidase in CMV-LacZ C2C12 myotubes; assay: CMV-LacZ secondary screen in C2C12 myotubes (β-Gal stabilizing assay); conditions: for CMV-LACZ in Myotubes, signal relative to DMSO: C2C12 CMV-LacZ myotubes, fold relative to DMSO; for CMV-LACZ in Myotubes, value relative to DMSO: SU9516 analogs, C2C12 CMV-LacZ, N=2
Outline: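 β-gal stabilization was measured in C2C12 myoblasts or myotubes stably transfected with a CMV-driven LacZ construct, using the FDG β-gal assay. Compounds were tested in dose-response at 0.5, 1, 5, 10, 20 and 40 μM, with two replicates per point.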

[2] = tested on: α7 integrin (LacZ reporter in α7βgal+/− myoblasts); assay: Myoblast α7+/LacZ integrin FDG assay (Burkin assay in myoblasts, 96-well); conditions: 96-well; for Burkin Assay in Myoblasts, signal relative to DMSO: α7+/LacZ myoblasts; for Burkin Assay in Myoblasts, value relative to DMSO: SU9516 analogs, N=3-6
[3] = tested on: α7 integrin (LacZ reporter in α7+/LacZ myotubes); assay: Myotube α7 integrin FDG assay (Burkin assay in myotubes, 96-well); conditions: for Burkin Assay in Myotubes, value relative to DMSO: SU9516 analogs, 96-well, N=3-6
[4] = tested on: β-galactosidase in CMV-LacZ C2C12 myoblasts; assay: CMV-LacZ secondary screen in C2C12 myoblasts (β-Gal stabilizing assay); conditions: for CMV-LACZ in Myoblasts (β-galactosidase activity relative to DMSO): CMV-LacZ C2C12 myoblasts; for CMV-LACZ in Myoblasts, value relative to DMSO: SU9516 analogs, C2C12 CMV-LacZ, N=2
Outline: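 First, C2C12 myoblasts were transfected with a linearized CMV-LACZ vector and clonal lines selected by FDG β-gal assay. Then cells were exposed to compounds at 0.5, 1, 5, 10, 20 and 40 μM in 96-well format, two replicates each, and β-gal measured.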

CCOC(=O)c1nnn(-c2nonc2OC)c1-c1ccccc1 [MLS000045588-01]
CMV-LACZ in Myotubes, signal relative to DMSO ([1]; 0.5 uM): 0.9059 | CMV-LACZ in Myotubes, signal relative to DMSO ([1]; 1 uM): 0.8607 | CMV-LACZ in Myotubes, signal relative to DMSO ([1]; 5 uM): 1.2294 | CMV-LACZ in Myotubes, signal relative to DMSO ([1]; 10 uM): 0.9776 | CMV-LACZ in Myotubes, signal relative to DMSO ([1]; 20 uM): 1.0494 | CMV-LACZ in Myotubes, signal relative to DMSO ([1]; 40 uM): 0.9424 | Burkin Assay in Myoblasts, signal relative to DMSO ([2]; 0.5 uM): 1.016 | Burkin Assay in Myoblasts, signal relative to DMSO ([2]; 1 uM): 1.107 | Burkin Assay in Myoblasts, signal relative to DMSO ([2]; 5 uM): 1.075 | Burkin Assay in Myoblasts, signal relative to DMSO ([2]; 10 uM): 0.917 | Burkin Assay in Myoblasts, signal relative to DMSO ([2]; 20 uM): 1.003 | Burkin Assay in Myoblasts, signal relative to DMSO ([2]; 40 uM): 0.8919 | Burkin Assay in Myotubes, α7 integrin LacZ reporter signal relative to DMSO ([3]; 0.5 uM): 1.077 | Burkin Assay in Myotubes, α7 integrin LacZ reporter signal relative to DMSO ([3]; 1 uM): 1.099 | Burkin Assay in Myotubes, α7 integrin LacZ reporter signal relative to DMSO ([3]; 5 uM): 1.135 | Burkin Assay in Myotubes, α7 integrin LacZ reporter signal relative to DMSO ([3]; 10 uM): 1.036 | Burkin Assay in Myotubes, α7 integrin LacZ reporter signal relative to DMSO ([3]; 20 uM): 1.063 | Burkin Assay in Myotubes, α7 integrin LacZ reporter signal relative to DMSO ([3]; 40 uM): 0.9546 | CMV-LACZ in Myoblasts (β-galactosidase activity relative to DMSO) ([4]; 0.5 uM): 0.7647 | CMV-LACZ in Myoblasts (β-galactosidase activity relative to DMSO) ([4]; 1 uM): 0.8372 | CMV-LACZ in Myoblasts (β-galactosidase activity relative to DMSO) ([4]; 5 uM): 1.0245 | CMV-LACZ in Myoblasts (β-galactosidase activity relative to DMSO) ([4]; 10 uM): 1.0611 | CMV-LACZ in Myoblasts (β-galactosidase activity relative to DMSO) ([4]; 20 uM): 0.8056 | CMV-LACZ in Myoblasts (β-galactosidase activity relative to DMSO) ([4]; 40 uM): 1.2167

O=C(NCCc1ccc(Cl)cc1)C1CCCO1 (centres unmarked) [MLS001198271-01]
CMV-LACZ in Myotubes, signal relative to DMSO ([1]; 0.5 uM): 0.9933 | CMV-LACZ in Myotubes, signal relative to DMSO ([1]; 1 uM): 1.0686 | CMV-LACZ in Myotubes, signal relative to DMSO ([1]; 5 uM): 0.9907 | CMV-LACZ in Myotubes, signal relative to DMSO ([1]; 10 uM): 0.9957 | CMV-LACZ in Myotubes, signal relative to DMSO ([1]; 20 uM): 1.1053 | CMV-LACZ in Myotubes, signal relative to DMSO ([1]; 40 uM): 1.0053 | Burkin Assay in Myoblasts, signal relative to DMSO ([2]; 0.5 uM): 1.034 | Burkin Assay in Myoblasts, signal relative to DMSO ([2]; 1 uM): 1 | Burkin Assay in Myoblasts, signal relative to DMSO ([2]; 5 uM): 1.292 | Burkin Assay in Myoblasts, signal relative to DMSO ([2]; 10 uM): 1.034 | Burkin Assay in Myoblasts, signal relative to DMSO ([2]; 20 uM): 1.088 | Burkin Assay in Myoblasts, signal relative to DMSO ([2]; 40 uM): 1.0038 | Burkin Assay in Myotubes, α7 integrin LacZ reporter signal relative to DMSO ([3]; 0.5 uM): 1.0083 | Burkin Assay in Myotubes, α7 integrin LacZ reporter signal relative to DMSO ([3]; 1 uM): 0.9334 | Burkin Assay in Myotubes, α7 integrin LacZ reporter signal relative to DMSO ([3]; 5 uM): 1.113 | Burkin Assay in Myotubes, α7 integrin LacZ reporter signal relative to DMSO ([3]; 10 uM): 0.9856 | Burkin Assay in Myotubes, α7 integrin LacZ reporter signal relative to DMSO ([3]; 20 uM): 0.9056 | Burkin Assay in Myotubes, α7 integrin LacZ reporter signal relative to DMSO ([3]; 40 uM): 0.8217 | CMV-LACZ in Myoblasts (β-galactosidase activity relative to DMSO) ([4]; 0.5 uM): 1.0204 | CMV-LACZ in Myoblasts (β-galactosidase activity relative to DMSO) ([4]; 1 uM): 1.0883 | CMV-LACZ in Myoblasts (β-galactosidase activity relative to DMSO) ([4]; 5 uM): 1.2105 | CMV-LACZ in Myoblasts (β-galactosidase activity relative to DMSO) ([4]; 10 uM): 0.8516 | CMV-LACZ in Myoblasts (β-galactosidase activity relative to DMSO) ([4]; 20 uM): 0.9944 | CMV-LACZ in Myoblasts (β-galactosidase activity relative to DMSO) ([4]; 40 uM): 1.2089

O=C(O)C(Cc1ccc(O)cc1)N1C(=O)c2ccccc2C1=O (centres unmarked) [MLS001165394-01]
CMV-LACZ in Myotubes, signal relative to DMSO ([1]; 0.5 uM): 0.9232 | CMV-LACZ in Myotubes, signal relative to DMSO ([1]; 1 uM): 1.1558 | CMV-LACZ in Myotubes, signal relative to DMSO ([1]; 5 uM): 0.9589 | CMV-LACZ in Myotubes, signal relative to DMSO ([1]; 10 uM): 0.9045 | CMV-LACZ in Myotubes, signal relative to DMSO ([1]; 20 uM): 1.0344 | CMV-LACZ in Myotubes, signal relative to DMSO ([1]; 40 uM): 0.9544 | Burkin Assay in Myoblasts, signal relative to DMSO ([2]; 0.5 uM): 1.149 | Burkin Assay in Myoblasts, signal relative to DMSO ([2]; 1 uM): 1.201 | Burkin Assay in Myoblasts, signal relative to DMSO ([2]; 5 uM): 1.159 | Burkin Assay in Myoblasts, signal relative to DMSO ([2]; 10 uM): 0.951 | Burkin Assay in Myoblasts, signal relative to DMSO ([2]; 20 uM): 1.035 | Burkin Assay in Myoblasts, signal relative to DMSO ([2]; 40 uM): 1.007 | Burkin Assay in Myotubes, α7 integrin LacZ reporter signal relative to DMSO ([3]; 0.5 uM): 1.068 | Burkin Assay in Myotubes, α7 integrin LacZ reporter signal relative to DMSO ([3]; 1 uM): 1.135 | Burkin Assay in Myotubes, α7 integrin LacZ reporter signal relative to DMSO ([3]; 5 uM): 1.239 | Burkin Assay in Myotubes, α7 integrin LacZ reporter signal relative to DMSO ([3]; 10 uM): 0.9854 | Burkin Assay in Myotubes, α7 integrin LacZ reporter signal relative to DMSO ([3]; 20 uM): 1.188 | Burkin Assay in Myotubes, α7 integrin LacZ reporter signal relative to DMSO ([3]; 40 uM): 1.034 | CMV-LACZ in Myoblasts (β-galactosidase activity relative to DMSO) ([4]; 0.5 uM): 1.0655 | CMV-LACZ in Myoblasts (β-galactosidase activity relative to DMSO) ([4]; 1 uM): 1.0015 | CMV-LACZ in Myoblasts (β-galactosidase activity relative to DMSO) ([4]; 5 uM): 1.0941 | CMV-LACZ in Myoblasts (β-galactosidase activity relative to DMSO) ([4]; 10 uM): 0.9792 | CMV-LACZ in Myoblasts (β-galactosidase activity relative to DMSO) ([4]; 20 uM): 0.8663 | CMV-LACZ in Myoblasts (β-galactosidase activity relative to DMSO) ([4]; 40 uM): 0.9570

CCN(CC)CCNC(=O)c1c(C)[nH]c(/C=C2\C(=O)Nc3ccc(F)cc32)c1C [NCGC00164631-03]
CMV-LACZ in Myotubes, value relative to DMSO ([1]; 0.5 uM): 1.2682 | CMV-LACZ in Myotubes, value relative to DMSO ([1]; 1 uM): 1.2736 | CMV-LACZ in Myotubes, value relative to DMSO ([1]; 5 uM): 0.8420 | CMV-LACZ in Myotubes, value relative to DMSO ([1]; 10 uM): 0.3964 | CMV-LACZ in Myotubes, value relative to DMSO ([1]; 20 uM): 0.6690 | CMV-LACZ in Myotubes, value relative to DMSO ([1]; 40 uM): 0.7680 | Burkin Assay in Myoblasts, value relative to DMSO ([2]; 0.5 uM): 0.8373 | Burkin Assay in Myoblasts, value relative to DMSO ([2]; 1 uM): 1.032 | Burkin Assay in Myoblasts, value relative to DMSO ([2]; 5 uM): 0.3224 | Burkin Assay in Myoblasts, value relative to DMSO ([2]; 10 uM): 0.01373 | Burkin Assay in Myoblasts, value relative to DMSO ([2]; 20 uM): 0.01408 | Burkin Assay in Myoblasts, value relative to DMSO ([2]; 40 uM): 0.01283 | Burkin Assay in Myotubes, value relative to DMSO ([3]; 0.5 uM): 0.9512 | Burkin Assay in Myotubes, value relative to DMSO ([3]; 1 uM): 0.9445 | Burkin Assay in Myotubes, value relative to DMSO ([3]; 5 uM): 0.5505 | Burkin Assay in Myotubes, value relative to DMSO ([3]; 10 uM): 0.1881 | Burkin Assay in Myotubes, value relative to DMSO ([3]; 20 uM): 0.09031 | Burkin Assay in Myotubes, value relative to DMSO ([3]; 40 uM): 0.07758 | CMV-LACZ in Myoblasts, value relative to DMSO ([4]; 0.5 uM): 0.8658 | CMV-LACZ in Myoblasts, value relative to DMSO ([4]; 5 uM): 0.7817 | CMV-LACZ in Myoblasts, value relative to DMSO ([4]; 10 uM): 0.2763 | CMV-LACZ in Myoblasts, value relative to DMSO ([4]; 20 uM): 0.1830 | CMV-LACZ in Myoblasts, value relative to DMSO ([4]; 40 uM): 0.1767
